Assay results from patent US6967200B2, “Remedies for cirrhosis” (Shionogi & Co., Ltd., priority 2000, dated 2005).

Target: T1, Human type-X sPLA2 (Homo sapiens, UniProt O15496)
T1 construct: made in house; host or cells: CHO cells stably transfected with a pSVL SV40 late promoter expression vector; unpurified culture supernatant used as the enzyme source
T1 sequence (O15496 43-165): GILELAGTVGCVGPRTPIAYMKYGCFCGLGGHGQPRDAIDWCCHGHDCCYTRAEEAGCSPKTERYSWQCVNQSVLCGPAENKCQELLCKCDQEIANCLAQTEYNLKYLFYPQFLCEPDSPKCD
Assay: type-X sPLA2 inhibition test (chromogenic assay, diheptanoylthio PC substrate)
Assay type: biochemical
Details: diheptanoylthio PC 1 mM, 30 min at 40° C., pH 7.5, absorbance at 405 nm
Text: cDNA sequence encoding human type-X sPLA2 (Cupillard et al., J. Biol. Chem, 1997, 272, 15745-15752) was inserted into the downstream region of the promoter of pSVL SV40 Late Promoter Expression Vector (Amersham Pharmacia Biotech Inc.) that is an expression vector for mammalian cells. The obtained expression vector was transfected into the host CHO cells with a LipofectAMINE reagent (Gibco BRL Inc.) according to the manufacture's instruction to obtain the CHO cells stably expressing human type-X sPLA2.
In order to identify and evaluate an inhibitor of type-X sPLA2, the following chromogenic assay is utilized. This assay has been applied for high volume screening using a 96-well microtiterplate. A general explanation for this assay is described in “Analysis of Human Synovial Fluid Phospholipase A2 on Short Chain Phosphatidylcholine-Mixed Micelles: Development of a Spectrophotometric Assay Suitable for a Micortiterplate Reader” (Analytical Biochemistry, 204, pp 190-197, 1992 by Laure. J. Reynolds. Lori L. Hughes and Edward A. Dennis.
Human type-X sPLA2 was incubated (30 min at 40° C. (15 μl/well)) with diheptanoylthio PC (1 mM) in the presence of Triton X-100 (0.3 mM) and 5,5′-dithiobis(2-nitrobenzoic acid) (125 μM) in Tris-HCl buffer (25 mM, pH 7.5) containing CaCl2 (10 mM), KCl (100 mM), and bovine serum albumin (1.0 mg/mL). […]

IC50: 5 nM
Structure (SMILES): NC(=O)C1=CCCc2c1c1c(OCC(=O)O)nccn1c2Cc1ccccc1 [Compound 7]
